Results: patent publication US12383522B2, “Baclofen formulations and methods of minimizing patient exposure to metabolite variations” (AMNEAL PHARMACEUTICALS LLC, priority 2021, dated 2025)
Read-outs that look alike come from different tables or passages of the source.

What was measured:
[1] = background statement; cited from earlier work
[2] = Accelerated stability studies of API/stabilizer preparations (Example 1), lactam impurity A by HPLC; format: physicochemical

In the case of `O=C(O)CC(CO)c1ccc(Cl)cc1` (centres unmarked) [Treatment M1, 3-(4-chlorophenyl)-4-hydroxybutyric acid], the “biological activity of metabolite (limited evaluation)” value [1] is listed as “inactive” and the “share of dominant metabolite of baclofen (reported)” value [1] is listed as 15%.

For `NCC(CC(=O)O)c1ccc(Cl)cc1` (centres unmarked) [baclofen, 4-amino-3-(4-chlorophenyl)butanoic acid], the “effect of EUDRAGIT E on formation of lactam impurity A” value (“effect of EUDRAGIT E” for short) ([2]; closed glass vials, 60° C. (baclofen, gabapentin) or 80° C. (pregabalin), HPLC, FIGS. 1-12) was “stabilization effect”.

With `NCC1(CC(=O)O)CCCCC1` [gabapentin] the “effect of EUDRAGIT E” value [2] was “destabilization effect”.

With `CC(C)C[C@H](CN)CC(=O)O` [pregabalin] the “effect of EUDRAGIT E” value [2] was “destabilization effect”.
